Experimental data reported in US20050154230A1, “Urea derivatives” (Bayer HealthCare AG, priority 2001, published 2005).

Biological target: T1, human VR1 (Homo sapiens, UniProt Q8NER1)
T1 construct: expressed in transfected cells
Assay: Capsaicin-induced Ca2+ influx in the human VR1-transfected CHO cell line (Assay 1)
Format: cell-based
Details: not given
Procedure: [Measurement of Capsaicin-Induced Ca^2+ Influx in the Human VR1-Transfected CHO Cell Line] (Assay 1)
(1) Establishment of the Human VR1-CHOluc9aeq Cell Line
The cloned hVR1 cDNA was constructed with pcDNA3 vector and transfected into a CHOluc9aeq cell line. The cell line contains aequorin and CRE-luciferase reporter genes as read-out signals. The transfectants were cloned by limiting dilution in selection medium (DMEM/F12 medium (Gibco BRL) supplemented with 10% FCS, 1.4 mM Sodium pyruvate, 20 mM HEPES, 0.15% Sodium bicarbonate, 100 U/ml penicillin, 100 μg/ml streptomycin, 2 mM glutamine, non-essential amino acids and 2 mg/ml G418). Ca^2+ influx was examined in the capsaicin-stimulated clones. […] The human VR1-CHOluc9aeq cells were maintained in the selection medium and passaged every 3-4 days at 1-2.5×10^5 cells/flask ([…]).
(2) Measurement of Ca^2+ Influx Using FDSS-3000
Human VR1-CHOluc9aeq cells were suspended in a culture medium which is the same as the selection medium except for G418 and seeded at a density of 1,000 cells per well into 384-well plates (black walled clear-base/Nalge Nunc International). […] After washing twice with assay buffer the cells were incubated with a test compound or vehicle for 20 min at 25° C. […] Integral R was calculated and compared with controls.

T1 sequence (Q8NER1 whole entry): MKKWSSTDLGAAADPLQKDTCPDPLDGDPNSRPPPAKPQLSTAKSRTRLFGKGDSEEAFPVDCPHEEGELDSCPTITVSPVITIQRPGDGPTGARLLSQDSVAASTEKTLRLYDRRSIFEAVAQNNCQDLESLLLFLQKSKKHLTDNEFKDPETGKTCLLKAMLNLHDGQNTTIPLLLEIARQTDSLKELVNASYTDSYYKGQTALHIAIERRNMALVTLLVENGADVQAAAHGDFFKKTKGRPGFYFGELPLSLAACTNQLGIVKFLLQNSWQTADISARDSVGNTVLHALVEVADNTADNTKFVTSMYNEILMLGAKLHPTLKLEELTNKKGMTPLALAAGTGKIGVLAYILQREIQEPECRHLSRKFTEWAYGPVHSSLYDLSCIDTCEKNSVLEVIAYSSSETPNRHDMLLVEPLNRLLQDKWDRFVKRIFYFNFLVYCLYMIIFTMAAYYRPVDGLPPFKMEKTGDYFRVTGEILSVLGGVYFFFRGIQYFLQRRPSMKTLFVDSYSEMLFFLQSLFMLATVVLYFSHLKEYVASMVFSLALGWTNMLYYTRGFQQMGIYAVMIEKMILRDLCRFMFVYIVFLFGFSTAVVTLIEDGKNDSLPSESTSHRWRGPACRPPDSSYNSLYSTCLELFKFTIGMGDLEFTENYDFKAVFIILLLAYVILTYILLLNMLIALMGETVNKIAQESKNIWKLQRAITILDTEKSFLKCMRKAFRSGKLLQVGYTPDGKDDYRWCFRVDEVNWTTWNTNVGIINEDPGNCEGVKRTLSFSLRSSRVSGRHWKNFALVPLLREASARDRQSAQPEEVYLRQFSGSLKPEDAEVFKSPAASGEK

| Compound | IC50 |
| --- | --- |
| O=C(Nc1cccc(OC(F)(F)F)c1)Nc1ccccc1CCO [Example 2-2, N-[2-(2-hydroxyethyl)phenyl]-N′-[3(trifluoromethoxy)phenyl]urea] | < 100 nM |
| COc1cc(CNC(=O)Nc2ccc(Oc3ccccc3)cc2)ccc1O [Example 76] | < 100 nM |

Same assay, conditions: human VR1-CHOluc9aeq cells, 10 nM capsaicin; compound purity about 40 to 90%; read-out: hVR1 class

| Compound | IC50 |
| --- | --- |
| CSc1cccc(NC(=O)NCc2cccc(Cl)c2)c1 [Example 37] | 500 to 1000 nM |
| COc1cccc(CNC(=O)Nc2ccccc2)c1 [Example 9] | 500 to 1000 nM |
| COc1cccc(NC(=O)NCc2ccc(Cl)c(Cl)c2)c1 [Example 43] | 100 to 500 nM |
| COc1cccc(CNC(=O)Nc2ccc(F)cc2)c1 [Example 11] | 500 to 1000 nM |
| O=C(Nc1cccc(-c2ccc(Cl)cc2)c1)Nc1ccccc1CCO [Example 194] | < 100 nM |
| COc1ccc(COc2cc(CNC(=O)Nc3ccccc3)ccc2OC)cc1 [Example 6] | 500 to 1000 nM |
| COc1cc(CNC(=O)NCc2ccc(Br)cc2)ccc1O [Example 68] | 100 to 500 nM |
| CNS(=O)(=O)c1ccc2c(c1)CN(C(=O)Nc1ccc(Cl)c(C(F)(F)F)c1)CC2 [Example 85] | 500 to 1000 nM |
| NS(=O)(=O)c1ccc2c(c1)CN(C(=O)Nc1ccc(Cl)c(C(F)(F)F)c1)CC2 [Example 84] | 100 to 500 nM |
| O=C(Nc1ccc(Oc2ccccc2)cc1)N1CCc2ccc(S(=O)(=O)N3CCN(CCO)CC3)cc2C1 [Example 89] | 500 to 1000 nM |
| O=C(Nc1cccc(-c2ccc(F)cc2)c1)Nc1ccccc1CCO [Example 193] | < 100 nM |
| CC(C)(C)c1ccc(C(C)(C)C)c(NC(=O)Nc2ccccc2CCO)c1 [Example 177] | 500 to 1000 nM |
| O=C(NCc1cccc(Cl)c1)Nc1ccccc1 [Example 38] | 500 to 1000 nM |
| CS(=O)(=O)Nc1ccc2c(c1)CN(C(=O)Nc1ccc(Oc3ccccc3)cc1)CC2 [Example 91] | 500 to 1000 nM |
| COc1cc(CNC(=O)Nc2ccc([N+](=O)[O-])cc2Cl)ccc1O [Example 67] | 500 to 1000 nM |
| COc1cc(CNC(=O)Nc2cccc(Cl)c2)ccc1O [Example 81] | < 100 nM |
| COc1cccc(NC(=O)NCc2cccc(Cl)c2)c1 [Example 39] | 500 to 1000 nM |
| CSc1cccc(NC(=O)NCc2cccc(F)c2)c1 [Example 45] | 500 to 1000 nM |
| O=C(Nc1cc(Cl)ccc1Cl)Nc1ccccc1CCO [Example 162] | 500 to 1000 nM |
| O=C(Nc1ccc(Cl)cc1Cl)Nc1ccccc1CCO [Example 138] | 500 to 1000 nM |
| O=C(NCc1ccc2c(c1)OCO2)Nc1ccc(F)cc1 [Example 19] | 500 to 1000 nM |
| COCOc1cccc(CNC(=O)Nc2cccc(SC)c2)c1 [Example 26] | 500 to 1000 nM |

| Compound | IC50 |
| --- | --- |
| COc1cccc(NC(=O)NCc2ccc(F)c(F)c2)c1 [Example 51] | 500 to 1000 nM |
| COc1cc2c(cc1OC)CN(C(=O)Nc1ccccc1)CC2 [Example 21] | 500 to 1000 nM |
| O=C(NCc1cccc(F)c1)Nc1ccc(F)cc1 [Example 48] | 500 to 1000 nM |
| O=C(NCc1cccc(Cl)c1)Nc1ccc(F)cc1 [Example 40] | 500 to 1000 nM |
| COCOc1cccc(CNC(=O)Nc2ccc(F)cc2)c1 [Example 27] | 500 to 1000 nM |
| O=C(NCc1ccc(Cl)c(Cl)c1)Nc1ccccc1 [Example 42] | 100 to 500 nM |
| O=C(NCc1cccc(O)c1)Nc1ccc(F)cc1 [Example 31] | 500 to 1000 nM |
| COC(=O)c1ccccc1NC(=O)NCc1ccc(O)c(OC)c1 [Example 61] | 500 to 1000 nM |
| O=C(Nc1ccccc1CCO)Nc1cccc2cc(O)ccc12 [Example 167] | 500 to 1000 nM |
| O=C(NCc1ccc(F)c(F)c1)Nc1ccc(F)cc1 [Example 52] | 500 to 1000 nM |
| CSc1cccc(NC(=O)NCc2ccc3c(c2)OCO3)c1 [Example 16] | 500 to 1000 nM |
| COc1cc2c(cc1O)CN(C(=O)Nc1ccc(Cl)c(C(F)(F)F)c1)CC2 [Example 69] | 100 to 500 nM |
| CCOC(=O)c1ccc(NC(=O)Nc2ccccc2CCO)cc1 [Example 163] | 500 to 1000 nM |
| COc1cc(CNC(=O)Nc2cccc(SC)c2)ccc1O [Example 32] | 100 to 500 nM |
| O=C(Nc1ccc(Cl)c(C(F)(F)F)c1)NC1CCCc2ccc([N+](=O)[O-])cc21 (centres unmarked) [Example 94] | 500 to 1000 nM |
| COc1cc(CNC(=O)Nc2ccccc2)ccc1O [Example 33] | 500 to 1000 nM |
| COc1cccc(NC(=O)NCc2ccc(OC)c(OC)c2)c1 [Example 14] | 500 to 1000 nM |
| COc1cccc(CNC(=O)Nc2cccc(OC)c2)c1 [Example 10] | 500 to 1000 nM |
| CS(=O)(=O)Nc1ccc2c(c1)CN(C(=O)Nc1ccc(Cl)c(C(F)(F)F)c1)CC2 [Example 92] | 100 to 500 nM |
| COc1ccc(CNC(=O)Nc2cccc(SC)c2)cc1OC [Example 12] | 500 to 1000 nM |
| COc1cccc(CNC(=O)Nc2cccc(SC)c2)c1 [Example 8] | 500 to 1000 nM |
| CS(=O)(=O)Nc1ccc2c(c1)CN(C(=O)NCc1ccc(Br)cc1)CC2 [Example 90] | 500 to 1000 nM |

| Compound | IC50 |
| --- | --- |
| O=C(Nc1ccc(-c2ccc([N+](=O)[O-])cc2)cc1)Nc1ccccc1CCO [Example 178] | 100 to 500 nM |
| O=C(NCc1ccc(F)c(F)c1)Nc1ccccc1 [Example 50] | 500 to 1000 nM |
| COc1cc(CNC(=O)NCCc2ccccc2)ccc1O [Example 77] | 100 to 500 nM |
| COc1cccc(NC(=O)NCc2cccc(O)c2)c1 [Example 30] | 500 to 1000 nM |
| O=C(Nc1ccccc1CCO)Nc1c(Cl)cccc1Cl [Example 139] | 500 to 1000 nM |
| O=C(Nc1ccccc1F)Nc1ccccc1CCO [Example 130] | 500 to 1000 nM |
| COc1cccc(NC(=O)NCc2ccc3c(c2)OCO3)c1 [Example 18] | 500 to 1000 nM |
| COc1cccc(NC(=O)N2CCc3cc(OC)c(OC)cc3C2)c1 [Example 22] | 500 to 1000 nM |
| CC(C)c1cccc(C(C)C)c1NC(=O)Nc1ccccc1CCO [Example 142] | 500 to 1000 nM |
| COc1cc2c(cc1OC)CN(C(=O)Nc1cccc(SC)c1)CC2 [Example 20] | 500 to 1000 nM |
| COc1cc(CNC(=O)Nc2cc(C(F)(F)F)ccc2Cl)ccc1O [Example 80] | < 100 nM |
| COCOc1cccc(CNC(=O)Nc2ccccc2)c1 [Example 24] | 500 to 1000 nM |
| CSc1cccc(NC(=O)NCc2ccc(F)c(F)c2)c1 [Example 49] | 500 to 1000 nM |
| CN(C)CCNS(=O)(=O)c1ccc2c(c1)CN(C(=O)Nc1ccc(Cl)c(C(F)(F)F)c1)CC2 [Example 87] | 500 to 1000 nM |
| O=C(NCc1cccc(F)c1)Nc1ccccc1 [Example 46] | 500 to 1000 nM |
| COc1cc(CNC(=O)Nc2ccccc2F)ccc1O [Example 75] | 100 to 500 nM |
| O=C(Nc1ccccc1CCO)Nc1cccc(Cl)c1Cl [Example 137] | 500 to 1000 nM |
| CSc1cccc(NC(=O)NCc2cccc(O)c2)c1 [Example 29] | 500 to 1000 nM |
| CC(=O)Nc1ccc2c(c1)C(NC(=O)Nc1ccc(Cl)c(C(F)(F)F)c1)CCC2 (centres unmarked) [Example 97] | 500 to 1000 nM |
| COc1cccc(NC(=O)NCc2cccc(F)c2)c1 [Example 47] | 500 to 1000 nM |
| O=C(Nc1ccccc1CCO)Nc1ccccc1-c1ccccc1 [Example 141] | 500 to 1000 nM |
| COc1cc(CNC(=O)Nc2cccc(C(C)=O)c2)ccc1O [Example 59] | 500 to 1000 nM |

| Compound | IC50 |
| --- | --- |
| O=C(Nc1cc(C(F)(F)F)ccc1Cl)Nc1ccccc1CCO [Example 144] | 100 to 500 nM |
| COc1ccc(CNC(=O)Nc2cccc(SC)c2)cc1O [Example 35] | 500 to 1000 nM |
| CN(C)S(=O)(=O)c1ccc2c(c1)CN(C(=O)Nc1ccc(Oc3ccccc3)cc1)CC2 [Example 88] | 500 to 1000 nM |
| COc1ccc(CNC(=O)Nc2ccccc2)cc1O [Example 36] | 500 to 1000 nM |
| CN(C)c1ccc(-c2cccc(NC(=O)Nc3ccccc3CCO)c2)cc1 [Example 170] | < 100 nM |
| CNS(=O)(=O)c1ccc2c(c1)CN(C(=O)Nc1ccc(Oc3ccccc3)cc1)CC2 [Example 95] | 500 to 1000 nM |
| O=C(NCc1cccc(O)c1)Nc1ccccc1 [Example 28] | 500 to 1000 nM |
| CN(C)S(=O)(=O)c1ccc2c(c1)CN(C(=O)Nc1ccc(Cl)c(C(F)(F)F)c1)CC2 [Example 86] | 500 to 1000 nM |
| COc1ccc(CNC(=O)Nc2ccc(F)cc2)cc1OC [Example 15] | 500 to 1000 nM |
| COc1cc2c(cc1OC)CN(C(=O)Nc1ccc(F)cc1)CC2 [Example 23] | 500 to 1000 nM |
| O=C(Nc1ccccc1CCO)Nc1ccc(Cl)cc1C(F)(F)F [Example 143] | 500 to 1000 nM |
| CS(=O)(=O)Nc1ccc2c(c1)CN(C(=O)Nc1ccc(Br)cc1)CC2 [Example 93] | 500 to 1000 nM |
| COc1ccc(CNC(=O)Nc2ccccc2)cc1OC [Example 13] | 500 to 1000 nM |
| COCOc1cccc(CNC(=O)Nc2cccc(OC)c2)c1 [Example 25] | 500 to 1000 nM |
| COc1cccc(NC(=O)Nc2cccc(-c3ccc(Cl)cc3)c2)c1CCO [Example 251] | < 100 nM |
| O=C(NCc1ccc2c(c1)OCO2)Nc1ccccc1 [Example 17] | 500 to 1000 nM |
| COc1ccc(COc2cc(CNC(=O)Nc3ccc(F)cc3)ccc2OC)cc1 [Example 7] | 500 to 1000 nM |
| COc1cc(CNC(=O)Nc2ccccc2Cl)ccc1O [Example 79] | 100 to 500 nM |
| CCOC(=O)c1ccccc1NC(=O)Nc1ccccc1CCO [Example 140] | 500 to 1000 nM |
| O=C(NCc1ccc(Cl)c(Cl)c1)Nc1ccc(F)cc1 [Example 44] | 100 to 500 nM |

Test system: not given
Assay: not given
Details: not given

| Compound | melting point |
| --- | --- |
| O=C(Nc1ccc(Cl)c(C(F)(F)F)c1)NC1CCCc2ccc(O)cc21 (centres unmarked) [Example 54] | 201 °C |
